# Legend:
# [1] = Compound was tested for the inhibition of Escherichia coli glutamyl-t-RNA synthetase
# [2] = Compound was tested for the inhibition of aminoacyl tRNA Synthetase
SMILES,Ki [1],Ki [2]
NC(CCC(=O)O)C(=O)OC[C@H]1OC(O)[C@H](O)[C@@H]1O (stereo not given in full),500 µM,–
"NC(CCC(=O)O)C(=O)OC[C@H]1C[C@@H](O)C[C@@H](CO)N1 (stereo partly drawn) [4-ammonio-5-{[(2R,4S,6S)-4-hydroxy-6-(hydroxymethyl)piperidin-2-yl]methoxy}-5-oxopentanoate]",20 µM,–
NC(CCC(=O)O)C(=O)OC[C@H]1CCCN1 (stereo not given in full),380 µM,–
COc1cc(CNC(=O)CCCC/C=C/C(C)C)ccc1O [Zostrix],–,42 µM
NC(CCC(=O)O)C(=O)OC[C@@H]1CCCN1 (stereo not given in full),11400 µM,–

# Source: BindingDB's records for doi:10.1016/S0960-894X(97)00434-4 (1997)
